Laboratory results as given in patent publication US12629374B2, “Antimalarial agents” (Merck Sharp & Dohme LLC, priority 2020, dated 2026).
Like-named read-outs stand apart in the source and are kept apart here.

Tested on: ring stage parasites
Assay: Parasite growth potency assay, 72 hours, LDH readout
Assay type: cell-based
Conditions: parasite growth measured by LDH assay after 72 hours at 37° C., 0.7% rings, 2% haematocrit, read-out: EC50
In short: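 Parasite growth was quantified by LDH assay after a −80 °C freeze-thaw. Before that, compound was incubated for 72 h at 37 °C under humidified gas with ring-stage cultures adjusted to 0.7% parasitemia and 2% haematocrit in serum- and albumax-supplemented RPMI-Hepes.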

| Compound | EC50 (72 h) [nM] | other results |
| --- | --- | --- |
| CC(C)[C@]1(C)CC(=O)N(Cc2cccc(C(=O)N[C@@H]3c4ccccc4C[C@@H]3O)c2)C(=N)N1 [Example 18, [(4S)-1-[[3-[[(1R,2S)-2-hydroxyindan-1-yl]carbamoyl]phenyl]methyl]-4-isopropyl-4-methyl-6-oxo-hexahydropyrimidin-2-ylidene]ammonium; 2,2,2-trifluoroacetate] | 21.5 |  |
| CCC1(CC)CC(=O)N(C(c2cncc(C(=O)N[C@H]3CC(C)(C)Oc4ccccc43)c2)c2cncs2)C(=N)N1 (stereo partly drawn) [Example 105A, [1-[[5-[[(4S)-2,2-dimethylchroman-4-yl]carbamoyl]pyridin-1-ium-3-yl]-thiazol-5-yl-methyl]-4,4-diethyl-6-oxo-hexahydropyrimidin-2-ylidene]ammonium; 2,2,2-trifluoroacetate] | 0.5 |  |
| CCC1(CC)CC(=O)N([C@H](CCOC)c2cc(F)cc(C(=O)N[C@@H]3c4ccccc4CC3(C)O)c2)C(=N)N1 (stereo in doubt) [Example 144B, 3-[1-(4,4-diethyl-2-imino-6-oxo-hexahydropyrimidin-1-yl)-3-methoxy-propyl]-5-fluoro-N-(2-hydroxy-2-methyl-indan-1-yl)benzamide] |  | EC50: 1.9 nM |
| CCC1(CC)CC(=O)N([C@H](CCN2CCOCC2)c2cccc(C(=O)NC3CC(C)(C)Oc4ccc(F)cc43)c2)C(=N)N1 (stereo in doubt) [Example 137, [4,4-diethyl-1-[1-[3-[(6-fluoro-2,2-dimethyl-chroman-4-yl)carbamoyl]phenyl]-3-morpholin-4-ium-4-yl-propyl]-6-oxo-hexahydropyrimidin-2-ylidene]ammonium; 2,2,2-trifluoroacetate] | 0.8 |  |
| CCC1(CC)CC(=O)N(Cc2cccc(C(=O)N[C@H]3CCOc4ccc(C)cc43)c2)C(=N)N1 (stereo in doubt) [Example 217, 3-[(4,4-diethyl-2-imino-6-oxo-hexahydropyrimidin-1-yl)methyl]-N-(6-methylchroman-4-yl)benzamide] | 10 |  |
| CCC[C@H](c1cccc(C(=O)N[C@H]2CCc3ccccc32)c1)N1C(=N)NC(CC)(CC)CC1=O [Example 76, [4,4-diethyl-1-[1-[3-[[(1S)-indan-1-yl]carbamoyl]phenyl]butyl]-6-oxo-hexahydropyrimidin-2-ylidene]ammonium; 2,2,2-trifluoroacetate] | 0.9 |  |
| CCC1(C)CC(=O)N([C@H](CCOC)c2cccc(C(=O)N[C@@H]3c4ccccc4C4(CC4)[C@H]3O)c2)C(=N)N1 (stereo partly drawn) [Example 168, [4-ethyl-1-[(1R)-1-[3-[(2′-hydroxyspiro[cyclopropane-1,3′-indane]-1′-yl)carbamoyl]phenyl]-3-methoxy-propyl]-4-methyl-6-oxo-hexahydropyrimidin-2-ylidene]ammonium; 2,2,2-trifluoroacetate] | 1.4 |  |
| C#CCCC[C@H](c1cccc(C(=O)N[C@H]2CCOc3ccccc32)c1)N1C(=N)NC(CC)(CC)CC1=O [Example 210A, [1-[1-[3-[[(4S)-chroman-4-yl]carbamoyl]phenyl]hex-5-ynyl]-4,4-diethyl-6-oxo-hexahydropyrimidin-2-ylidene]ammonium; 2,2,2-trifluoroacetate] | 0.7 |  |
| CCC1(CC)CC(=O)N([C@H](CCOC)c2cc(F)cc(C(=O)N[C@@H]3c4ccccc4OC3(C)COC)c2)C(=N)N1 (stereo partly drawn) [Example 176B, [4,4-diethyl-1-[(1R)-1-[3-fluoro-5-[[2-(methoxymethyl)-2-methyl-3H-benzofuran-3-yl]carbamoyl]phenyl]-3-methoxy-propyl]-6-oxo-hexahydropyrimidin-2-ylidene]ammonium; 2,2,2-trifluoroacetate] | 0.9 |  |
| CC(C)[C@]1(C)CC(=O)N(Cc2cccc(C(=O)N[C@H]3CCc4ccccc43)c2)C(=N)N1 [Example 75, [(4S)-1-[[3-[[(1S)-indan-1-yl]carbamoyl]phenyl]methyl]-4-isopropyl-4-methyl-6-oxo-hexahydropyrimidin-2-ylidene]ammonium; 2,2,2-trifluoroacetate] | 66.5 |  |
| CCC1(CC)CC(=O)N([C@@H](c2cccc(C(=O)N[C@H]3CC(C)(C)Oc4ccccc43)c2)C(C)c2cccnc2)C(=N)N1 (stereo partly drawn) [Example 96, [1-[1-[3-[[(4S)-2,2-dimethylchroman-4-yl]carbamoyl]phenyl]-2-pyridin-1-ium-3-yl-propyl]-4,4-diethyl-6-oxo-hexahydropyrimidin-2-ylidenelammonium; 2,2,2-trifluoroacetate] | 19.9 |  |
| COCC[C@H](c1cc(F)cc(C(=O)N[C@@H]2c3ccccc3C[C@H]2O)c1)N1C(=N)NC(C)(C)CC1=O [Example 169, [1-[1-[3-fluoro-5-[[(1R,2R)-2-hydroxyindan-1-yl]carbamoyl]phenyl]-3-methoxy-propyl]-4,4-dimethyl-6-oxo-hexahydropyrimidin-2-ylidene]ammonium; 2,2,2-trifluoroacetate] | 4.7 |  |
| CC[C@@]1(C(C)C)CC(=O)N(Cc2cc(F)cc(C(=O)N[C@@H]3c4ccccc4C[C@H]3O)c2)C(=N)N1 [Example 61, [(4S)-4-ethyl-1-[[3-fluoro-5-[[(1R,2R)-2-hydroxyindan-1-yl]carbamoyl]phenyl]methyl]-4-isopropyl-6-oxo-hexahydropyrimidin-2-ylidene]ammonium; 2,2,2-trifluoroacetate] | 6.1 |  |
| CCC1(CC)CC(=O)N(Cc2cccc(C(=O)N[C@H]3CCOc4ccccc43)c2F)C(=N)N1 [Example 20, [1-[[3-[[(4S)-chroman-4-yl]carbamoyl]-2-fluoro-phenyl]methyl]-4,4-diethyl-6-oxo-hexahydropyrimidin-2-ylidene]ammonium; 2,2,2-trifluoroacetate] | 10.9 |  |
| CCC1(CC)CC(=O)N(C(COC)c2cccc(C(=O)N[C@@H]3c4ccccc4OC[C@]3(C)O)c2)C(=N)N1 (stereo partly drawn) [Example 229, 3-[1-(4,4-diethyl-2-imino-6-oxo-hexahydropyrimidin-1-yl)-2-methoxy-ethyl]-N-[(3R,4R)-3-hydroxy-3-methyl-chroman-4-yl]benzamide] | 2.2 |  |
| CCC1(CC)CC(=O)N([C@H](CCOC(F)F)c2cccc(C(=O)N[C@@H]3c4ccccc4C[C@H]3O)c2)C(=N)N1 [Example 157, [1-[3-(difluoromethoxy)-1-[3-[[(1R,2R)-2-hydroxyindan-1-yl]carbamoyl]phenyl]propyl]-4,4-diethyl-6-oxo-hexahydropyrimidin-2-ylidene]ammonium; 2,2,2-trifluoroacetate] | 1.8 |  |
| C#CCC[C@H](c1cccc(C(=O)N[C@H]2CCOc3ccccc32)c1)N1C(=N)NC(CC)(CC)CC1=O [Example 209, [1-[1-[3-LL(4R)-chroman-4-yl]carbamoyl]phenyl]pent-4-ynyl]-4,4-diethyl-6-oxo-hexahydropyrimidin-2-ylidene]ammonium; 2,2,2-trifluoroacetate] | 8.9 |  |
| CCC1(CC)CC(=O)N(Cc2ccnc(C(=O)N[C@@H]3c4ccccc4C[C@H]3O)c2)C(=N)N1 [Example 36, [4,4-diethyl-1-[[2-[[(1R,2R)-2-hydroxyindan-1-yl]carbamoyl]-4-pyridyl]methyl]-6-oxo-hexahydropyrimidin-2-ylidene]ammonium; 2,2,2-trifluoroacetate] | 16.8 |  |
| CCC1(CC)CC(=O)N(Cc2cncc(C(=O)N[C@@H]3c4ccccc4C[C@H]3O)c2)C(=N)N1 [Example 39, [4,4-diethyl-1-[[5-[[(1R,2R)-2-hydroxyindan-1-yl]carbamoyl]pyridin-1-ium-3-yl]methyl]-6-oxo-hexahydropyrimidin-2-ylidene]ammonium; 2,2,2-trifluoroacetate] | 30.4 |  |
| CC(C)[C@]1(C)CC(=O)N(Cc2cc(F)cc(C(=O)N[C@H]3CCOc4ccccc43)c2)C(=N)N1 [Example 29, [(4S)-1-[[3-[[(4S)-chroman-4-yl]carbamoyl]-5-fluoro-phenyl]methyl]-4-isopropyl-4-methyl-6-oxo-hexahydropyrimidin-2-ylidene]ammonium; 2,2,2-trifluoroacetate] | 7.7 |  |
| CCC1(CC)CC(=O)N(C(c2cncnc2)c2cccc(C(=O)N[C@@H]3c4ccccc4C[C@H]3O)c2)C(=N)N1 (stereo partly drawn) [Example 110A, 3-[(4,4,-diethyl-2-imino-6-oxo-hexahydropyrimidin-1-yl)-pyrimidin-5-yl-methyl]-N-[(1R,2R)-2-hydroxyindan-1-yl]benzamide] |  | EC50: 4 nM |
| CCC1(CC)CC(=O)N(C(c2cncc(C(=O)N[C@H]3CC(C)(C)Oc4ccccc43)c2)c2cncs2)C(=N)N1 (stereo partly drawn) [Example 105B, [1-[[5-[[(4S)-2,2-dimethylchroman-4-yl]carbamoyl]pyridin-1-ium-3-yl]-thiazol-5-yl-methyl]-4,4-diethyl-6-oxo-hexahydropyrimidin-2-ylidene]ammonium; 2,2,2-trifluoroacetate] |  | EC50 (trifluoroacetate): 0.6 nM |
| CC(C)[C@]1(C)CC(=O)N(Cc2cccc(C(=O)N[C@H]3CCOc4ccccc43)c2)C(=N)N1 [Example 3, [(4S)-1-[[3-[[(4S)-chroman-4-yl]carbamoyl]phenyl]methyl]-4-isopropyl-4-methyl-6-oxo-hexahydropyrimidin-2-ylidene]ammonium; 2,2,2-trifluoroacetate] | 6.2 |  |
| CCC1(CC)CC(=O)N([C@H](c2ccccc2)c2cccc(C(=O)N[C@@H]3CCOc4ccccc43)c2)C(=N)N1 [Example 4B, [1-[[3-[[(4R)-chroman-4-yl]carbamoyl]phenyl]-phenyl-methyl]-4,4-diethyl-6-oxo-hexahydropyrimidin-2-ylidene]ammonium; 2,2,2-trifluoroacetate] | 35.4 |  |
| C#CCCC(c1cccc(C(=O)NC2CC(C)(C)Oc3ccccc32)c1)N1C(=N)NC(CC)(CC)CC1=O [Example 214B, 3-[(1R)-1-(4,4-diethyl-2-imino-6-oxo-hexahydropyrimidin-1-yl)pent-4-ynyl]-N-(2,2-dimethylchroman-4-yl)benzamide] |  | EC50: 31.2 nM |
| CCC1(CC)CC(=O)N(Cc2cccc(C(=O)N[C@@H]3c4ccccc4C[C@H]3O)n2)C(=N)N1 [Example 37, [4,4-diethyl-1-[[6-[[(1R,2R)-2-hydroxyindan-1-yl]carbamoyl]-2-pyridyl]methyl]-6-oxo-hexahydropyrimidin-2-ylidene]ammonium; 2,2,2-trifluoroacetate] | 14.4 |  |
